These results are taken from patent US20040057908A1, “Oral compositions and use thereof” (priority 2003, published 2004).

Values after ≈ are worked out from the molar mass of the structure shown. Read-outs that look alike come from different tables or passages of the source. Where only a bound is given, the exact number is not on record here.

The term MBC denotes the smallest concentration meeting the test's criterion for killing. High values mean weaker bactericidal potency, low ones greater bactericidal potency. As a reminder, the MIC is the least concentration at which growth counts as inhibited.

In assay [1] the test system is Streptococcus sobrinus 6715. Description: MIC and MBC, broth dilution. Format: cell-based. As to conditions: Streptococcus sobrinus 6715. As to the method:
(§1) The minimum inhibitory concentration (MIC) and minimum bactericidal concentration (MBC) were determined for each test compound according to the National Committee for Clinical Laboratory Standards guidelines (Tentative standard M26-T, 1992; NCCLS Publication No. M7-A5, 2000) and Koo et al. (2000b). The broth microdilution and macrodilution methods (in TSB) were used for the antibacterial tests. The starting inoculum was 5×10^5 CFU/ml and the concentrations of test compounds ranged from 15.6 to 500 μM (two-fold dilutions). The MICs and MBCs were determined in quadruplicate in at least 3 different experiments.
A general note: Broth dilution looks for growth in wells or tubes with falling amounts of substance.

Assay [2] deals with Streptococcus mutans GS-5. Description: MIC and MBC, broth dilution. The format is cell-based. As to the method:
as §1

In assay [3] the test system is Streptococcus mutans UA 159. Description: MIC and MBC, broth dilution. Format: cell-based. The protocol: as §1
For assay [4], the system named is Mutans Streptococci Strains. Description: MIC and MBC, broth dilution, all strains stated together. Format: cell-based, S. mutans (GS-5 and UA159) and S. sobrinus 6715. The protocol: as §1
Assay [5] concerns the target T1, GTF C (Streptococcus mutans serotype c, UniProt P13470).
T1 construct: The supernatant was carefully collected as the source of GTF C; made in house; host or cells: Streptococcus mutans WHB 410 (endogenous gtfC; urea/Triton extract of washed cells, hydroxyapatite chromatography)
Nature of the assay: GTF activity in solution, GTF C. The format is biochemical. To be noted: read-out: GTF C sol. % of Inhib. As to the method: (§2) Glucosyltransferase activity was measured by the incorporation of [^14C-glucose] from labeled sucrose (NEN Research Products, Boston, Mass.) into glucans (Germaine et al., 1974; Venkitaraman et al., 1995). The GTF enzyme added to each sample for all assays was equivalent to the amount required to incorporate 1.0-1.5 μmol of glucose over the four hours reaction (1.0-1.5 units).
(§3) For solution assays, purified GTF B, C, D and Ss were mixed with a two-fold dilution series of the test compounds (concentration ranging from 125 to 500 μM) and incubated with [^14C-glucose]-sucrose substrate (0.2 μCi/ml) (200.0 mmol/l sucrose, 40 μmol/l dextran 9000, 0.02% sodium azide in adsorption buffer—50 mM KCl, 1.0 mM KPO4, 1.0 mM CaCl2, 0.1 mM MgCl2−pH=6.5) to reach a final concentration of 100 mmol/l sucrose (200 μl final volume). For the control, the same reaction was carried out, where ethanol:DMSO (final concentration of 7.5% and 1.25%, v/v) or ethanol (final concentration of 5%, v/v) replaced the test agent solutions. The samples were incubated 37° C. with rocking for 4 h. After incubation, ice-cold ethanol (1.0 ml) was added and the samples were stored for 18 h, 4° C. for precipitation of glucans. Radiolabeled glucan was determined by scintillation counting (Germaine et al., 1974; Venkitaraman et al., 1995).

Assay [6] addresses T2, GTF Ss (Streptococcus sanguinis, UniProt A3CLJ9). Description: GTF activity adsorbed onto sHA surface, GTF Ss. The format is biochemical, S. sanguinis. As to conditions: read-out: GTF Ss surf. % of Inhib. As to the method: as §2
(§4) For surface assays, the GTFs were adsorbed to hydroxyapatite beads coated with clarified whole saliva (free of GTF activity), as detailed elsewhere (Koo et al., 2000c; Schilling and Bowen, 1988, Venkitaraman et al., 1995). The saliva-coated hydroxyapatite (sHA) beads were exposed to sufficient enzyme to saturate the surface as determined experimentally. Following the adsorption of the enzyme, the beads were washed 3 times with buffer to remove the loosely bound material and exposed to 300 μl of the two-fold dilution series of test compounds (or control) for 30 min. at the same concentrations described above. The beads were washed and exposed to 300 μl [^14C-glucose]-sucrose substrate (100.0 mmol/l sucrose, final concentration). The radiolabeled glucan formed was collected and quantified by scintillation counting (Germaine et al., 1974; Venkitaraman et al., 1995). All the solution and surface assays were done in quadruplicate in at least 3 different experiments.

For assay [7], the target named is T1, GTF C. Nature of the assay: GTF activity adsorbed onto sHA surface, GTF C. The format is biochemical. As to conditions: read-out: GTF C surf. % of Inhib. The protocol:
as §2, §4

Assay [8] addresses T3, GTF D (Streptococcus mutans serotype c, UniProt P49331).
T3 construct: made in house; host or cells: Streptococcus milleri NH5 (culture supernatant)
Description: GTF activity in solution, GTF D. The format is biochemical. As to conditions: read-out: GTF D sol. % of Inhib. The protocol:
as §2, §3

For assay [9], the target named is T2, GTF Ss. Nature of the assay: GTF activity in solution, GTF Ss. The format is biochemical, S. sanguinis. As to conditions: read-out: GTF Ss sol. % of Inhib. The protocol:
as §2, §3

In assay [10] the target is T4, GTF B (Streptococcus mutans serotype c, UniProt P08987).
T4 construct: made in house; host or cells: Streptococcus milleri KSB8 (culture supernatant)
T4 sequence (P08987 35-1476): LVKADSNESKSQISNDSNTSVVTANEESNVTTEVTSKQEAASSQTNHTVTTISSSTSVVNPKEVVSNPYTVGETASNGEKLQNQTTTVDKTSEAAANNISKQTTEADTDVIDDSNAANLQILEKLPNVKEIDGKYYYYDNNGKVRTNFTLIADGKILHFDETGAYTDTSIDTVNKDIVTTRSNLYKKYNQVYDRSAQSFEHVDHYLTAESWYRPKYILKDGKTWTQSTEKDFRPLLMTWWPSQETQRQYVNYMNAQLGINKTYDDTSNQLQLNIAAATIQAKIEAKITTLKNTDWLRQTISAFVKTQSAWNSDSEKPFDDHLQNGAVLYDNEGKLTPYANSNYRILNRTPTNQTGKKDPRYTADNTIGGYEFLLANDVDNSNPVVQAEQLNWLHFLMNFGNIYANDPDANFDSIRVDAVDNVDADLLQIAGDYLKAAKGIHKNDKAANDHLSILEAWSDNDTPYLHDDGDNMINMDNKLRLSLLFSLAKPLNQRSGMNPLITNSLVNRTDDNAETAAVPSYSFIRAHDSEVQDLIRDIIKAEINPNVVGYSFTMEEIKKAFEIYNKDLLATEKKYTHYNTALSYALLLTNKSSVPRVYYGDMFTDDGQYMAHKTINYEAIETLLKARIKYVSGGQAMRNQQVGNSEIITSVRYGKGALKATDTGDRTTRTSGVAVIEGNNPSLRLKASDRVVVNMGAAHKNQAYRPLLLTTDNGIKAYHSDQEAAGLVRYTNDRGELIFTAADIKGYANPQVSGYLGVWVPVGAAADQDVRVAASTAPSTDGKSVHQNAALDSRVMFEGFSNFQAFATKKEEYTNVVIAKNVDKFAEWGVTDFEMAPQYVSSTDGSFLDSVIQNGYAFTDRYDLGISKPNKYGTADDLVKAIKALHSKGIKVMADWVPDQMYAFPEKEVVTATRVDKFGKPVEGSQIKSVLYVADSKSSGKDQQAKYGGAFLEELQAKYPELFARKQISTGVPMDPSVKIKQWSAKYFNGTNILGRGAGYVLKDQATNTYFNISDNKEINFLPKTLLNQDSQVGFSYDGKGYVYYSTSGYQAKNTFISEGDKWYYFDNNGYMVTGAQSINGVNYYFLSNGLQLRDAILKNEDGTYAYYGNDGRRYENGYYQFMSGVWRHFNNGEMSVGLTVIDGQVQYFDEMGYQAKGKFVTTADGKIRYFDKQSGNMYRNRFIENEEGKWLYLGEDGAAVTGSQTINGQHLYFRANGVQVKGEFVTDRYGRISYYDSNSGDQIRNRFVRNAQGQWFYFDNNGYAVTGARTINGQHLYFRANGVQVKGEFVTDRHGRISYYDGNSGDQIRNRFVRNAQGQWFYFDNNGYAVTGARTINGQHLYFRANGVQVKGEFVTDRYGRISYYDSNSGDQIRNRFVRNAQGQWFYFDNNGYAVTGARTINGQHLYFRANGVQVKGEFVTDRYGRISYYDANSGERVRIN
Nature of the assay: GTF activity adsorbed onto saliva-coated hydroxyapatite (sHA) surface, GTF B. The format is biochemical. As to conditions: read-out: GTF B surf. % of Inhib. The protocol:
as §2, §4

The target of assay [11] is T4, GTF B. Description: GTF activity in solution, GTF B. The format is biochemical. To be noted: read-out: GTF B sol. % of Inhib. As to the method:
as §2, §3

Assay [12] has as its target T3, GTF D. Description: GTF activity adsorbed onto sHA surface, GTF D. Format: biochemical. As to conditions: read-out: GTF D surf. % of Inhib. As to the method: as §2, §4

T1 sequence (P13470 35-1455): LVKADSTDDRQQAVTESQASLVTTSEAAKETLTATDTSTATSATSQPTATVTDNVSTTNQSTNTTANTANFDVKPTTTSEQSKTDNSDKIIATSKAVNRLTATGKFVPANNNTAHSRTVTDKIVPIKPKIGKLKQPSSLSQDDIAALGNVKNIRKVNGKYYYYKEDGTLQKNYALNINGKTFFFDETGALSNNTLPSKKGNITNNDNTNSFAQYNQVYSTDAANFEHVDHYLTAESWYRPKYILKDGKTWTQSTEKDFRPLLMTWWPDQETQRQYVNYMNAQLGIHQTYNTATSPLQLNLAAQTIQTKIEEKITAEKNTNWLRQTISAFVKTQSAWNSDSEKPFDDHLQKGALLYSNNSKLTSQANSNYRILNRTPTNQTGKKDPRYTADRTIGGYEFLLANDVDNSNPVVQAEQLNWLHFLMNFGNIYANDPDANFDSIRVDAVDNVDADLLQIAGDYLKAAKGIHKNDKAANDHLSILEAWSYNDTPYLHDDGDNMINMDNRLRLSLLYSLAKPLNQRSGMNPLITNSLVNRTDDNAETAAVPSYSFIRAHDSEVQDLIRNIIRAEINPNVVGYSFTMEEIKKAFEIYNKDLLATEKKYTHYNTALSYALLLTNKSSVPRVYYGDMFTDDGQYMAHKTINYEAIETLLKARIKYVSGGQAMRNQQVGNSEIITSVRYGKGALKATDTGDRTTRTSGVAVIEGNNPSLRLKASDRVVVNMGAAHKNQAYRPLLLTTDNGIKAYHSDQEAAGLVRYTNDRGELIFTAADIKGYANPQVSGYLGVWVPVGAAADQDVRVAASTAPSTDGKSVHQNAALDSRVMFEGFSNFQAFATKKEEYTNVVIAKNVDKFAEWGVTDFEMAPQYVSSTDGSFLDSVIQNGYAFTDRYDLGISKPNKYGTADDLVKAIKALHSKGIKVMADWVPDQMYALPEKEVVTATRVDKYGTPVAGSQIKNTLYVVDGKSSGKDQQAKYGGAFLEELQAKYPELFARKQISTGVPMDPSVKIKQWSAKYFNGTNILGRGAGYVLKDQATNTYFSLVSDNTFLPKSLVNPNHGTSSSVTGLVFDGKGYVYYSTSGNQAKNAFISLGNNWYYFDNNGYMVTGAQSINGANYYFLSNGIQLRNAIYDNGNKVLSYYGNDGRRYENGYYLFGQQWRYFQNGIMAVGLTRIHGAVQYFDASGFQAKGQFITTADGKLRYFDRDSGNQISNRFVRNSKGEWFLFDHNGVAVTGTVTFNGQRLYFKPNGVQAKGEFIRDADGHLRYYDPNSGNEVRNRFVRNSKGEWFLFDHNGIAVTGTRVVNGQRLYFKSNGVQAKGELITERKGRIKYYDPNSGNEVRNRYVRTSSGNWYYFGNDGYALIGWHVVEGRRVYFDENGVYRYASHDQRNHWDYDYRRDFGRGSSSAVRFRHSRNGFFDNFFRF
T3 sequence (P49331 whole entry): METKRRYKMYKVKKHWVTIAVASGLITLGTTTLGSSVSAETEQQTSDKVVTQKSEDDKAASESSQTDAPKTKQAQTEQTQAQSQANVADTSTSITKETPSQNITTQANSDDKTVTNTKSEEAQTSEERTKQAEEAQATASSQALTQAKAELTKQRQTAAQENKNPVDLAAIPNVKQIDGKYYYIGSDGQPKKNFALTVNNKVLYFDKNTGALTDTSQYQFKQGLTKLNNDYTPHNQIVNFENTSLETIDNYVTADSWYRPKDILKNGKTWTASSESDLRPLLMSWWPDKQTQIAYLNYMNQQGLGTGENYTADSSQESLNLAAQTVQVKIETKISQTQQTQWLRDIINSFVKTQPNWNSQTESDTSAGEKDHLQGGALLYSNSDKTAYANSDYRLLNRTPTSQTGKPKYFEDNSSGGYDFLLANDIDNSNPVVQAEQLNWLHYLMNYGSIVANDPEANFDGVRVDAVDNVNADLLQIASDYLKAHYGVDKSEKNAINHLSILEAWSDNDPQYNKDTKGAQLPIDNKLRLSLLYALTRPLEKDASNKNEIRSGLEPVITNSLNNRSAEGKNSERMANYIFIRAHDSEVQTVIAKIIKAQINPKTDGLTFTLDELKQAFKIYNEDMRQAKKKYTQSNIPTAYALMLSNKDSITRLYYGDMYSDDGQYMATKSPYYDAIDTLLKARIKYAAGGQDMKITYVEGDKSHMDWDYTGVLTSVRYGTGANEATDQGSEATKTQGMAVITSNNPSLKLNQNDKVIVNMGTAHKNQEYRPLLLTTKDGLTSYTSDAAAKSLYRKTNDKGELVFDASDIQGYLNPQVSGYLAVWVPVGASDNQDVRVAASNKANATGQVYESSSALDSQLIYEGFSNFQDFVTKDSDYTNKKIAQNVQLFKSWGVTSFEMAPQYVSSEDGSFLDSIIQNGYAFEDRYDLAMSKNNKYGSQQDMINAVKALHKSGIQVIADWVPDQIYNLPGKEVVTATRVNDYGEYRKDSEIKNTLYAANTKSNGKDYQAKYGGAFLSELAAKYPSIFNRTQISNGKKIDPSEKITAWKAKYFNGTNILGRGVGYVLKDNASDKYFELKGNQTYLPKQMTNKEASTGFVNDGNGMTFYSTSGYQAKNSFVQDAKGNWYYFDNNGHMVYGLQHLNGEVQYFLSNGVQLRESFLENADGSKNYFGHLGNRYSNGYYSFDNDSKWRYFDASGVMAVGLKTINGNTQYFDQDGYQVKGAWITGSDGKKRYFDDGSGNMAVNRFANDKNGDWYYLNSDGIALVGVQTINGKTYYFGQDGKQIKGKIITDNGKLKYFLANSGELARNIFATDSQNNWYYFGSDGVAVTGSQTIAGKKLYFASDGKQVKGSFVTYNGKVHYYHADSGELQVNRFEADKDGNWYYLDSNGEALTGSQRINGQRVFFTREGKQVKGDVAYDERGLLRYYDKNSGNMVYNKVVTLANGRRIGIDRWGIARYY

On to `O=c1cc(-c2ccccc2)oc2cc(O)c(O)c(O)c12` [Baicalein], for which the MBC in [1], in assay [2] and in assay [3] was more than 500 µM throughout. Also, the minimal inhibitory concentration (MIC) is 500 µM (≈ 135 µg/mL) in assay [1]; 500 µM (≈ 135 µg/mL) in [2]; 500 µM (≈ 135 µg/mL) in assay [3]; 500 µM (≈ 135 µg/mL) in assay [4] (all strains tested (S. mutans GS-5, UA159, S. sobrinus 6715), read-out: MIC).

Turning to `COc1cc(O)c2c(c1)O[C@H](c1ccc(O)cc1)CC2=O` [Sakuranetin], the MBC in [1], in [2] and in assay [3] was more than 500 µM in each case. Further, the MIC in assay [1] is 500 µM (≈ 143 µg/mL); in assay [2], more than 500 µM; in assay [3], more than 500 µM.

For `COc1cc(C=O)cc(OC)c1O` [Syringaldehyde], in assay [4] (Streptococcus mutans), the MIC was more than 500 µM.

For `O=C(O)/C=C/c1ccc(O)cc1` [p-Coumaric acid], the MIC in assay [4] (Streptococcus mutans, all strains tested (S. mutans GS-5, UA159, S. sobrinus 6715), read-out: MIC) is more than 500 µM.

`O=c1c(O)c(-c2ccc(O)cc2)oc2cc(O)cc(O)c12` [Kaempferol]: the inhibition at 125 µM is 41.9% in assay [5]; 9.7% in assay [6]; 24.2% in [7]; 39.1% in [8]; 37.6% in assay [9]; 9.9% in [10]. In addition, the figures for the inhibition at 125 µM in [11] and in assay [12] were 32.4% and 20.4%, respectively. For the same compound, the inhibition at 250 µM in [5] worked out at 82.2%; in assay [6], 8.8%; in assay [7], 25.8%; in [8], 76.7%; in assay [9], 43.1%; in [10], 27.8%. In addition, the inhibition at 250 µM in [11] is 80.6%; in [12], 23.5%. Further, the inhibition at 500 µM in assay [5] stood at 90.2%; in assay [6] it was 19.2%; in assay [7], 35.2%; in assay [8] it was 86.7%; in assay [9], 88.9%; in assay [10] it was 40.2%. Also, the inhibition at 500 µM in [11] stood at 90.4%; in assay [12] it was 28.5%. Moreover, in [4] (Streptococcus mutans), the MIC was more than 500 µM.

`O=C(O)c1ccccc1` [Benzoic acid]: in [4] (Streptococcus mutans), the MIC was more than 500 µM.
